Data published in the supplement of paper PMC10307832.

Tests used:
Experiment in all cases: relative viability (nuclei count vs DMSO), 5 days (fraction); higher = more cells survive
[1] = tested on: ABC-1
Method in brief: (§1)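 One day after seeding in 1536-well plates, lung cancer cell lines were dosed by pin tool. Dosing was either single-drug or a fixed anchor-drug dose plus five library-drug doses (not always all listed) in √10 steps. After 5 days, nuclei were stained in one fix-and-stain step and counted on 4× images, and relative viability is the nuclei count of treated wells over that of vehicle wells, given as the median of duplicate plates.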

[2] = tested on: NCI-H2087
Method in brief: as §1

[3] = tested on: LC-2-ad
Method in brief: as §1

[4] = tested on: HCC-78
Method in brief: as §1

[5] = tested on: NCI-H3122
Method in brief: as §1

[6] = tested on: NCI-H460
Method in brief: as §1

[7] = tested on: PC-3 [JPC-3]
Method in brief: as §1

[8] = tested on: NCI-H1944
Method in brief: as §1

[9] = tested on: NCI-H2405
Method in brief: as §1

[10] = tested on: RERF-LC-KJ
Method in brief: as §1

[11] = tested on: NCI-H1755
Method in brief: as §1

[12] = tested on: LU99A
Method in brief: as §1

[13] = tested on: NCI-H1395
Method in brief: as §1

[14] = tested on: NCI-H2170
Method in brief: as §1

[15] = tested on: NCI-H1734
Method in brief: as §1

[16] = tested on: NCI-H1793
Method in brief: as §1

[17] = tested on: UMC-11
Method in brief: as §1

[18] = tested on: LOU-NH91
Method in brief: as §1

[19] = tested on: NCI-H1651
Method in brief: as §1

[20] = tested on: HCC-366
Method in brief: as §1

[21] = tested on: ChaGo-K-1
Method in brief: as §1

Compound `NC(=O)Nc1cc(-c2cccc(F)c2)sc1C(=O)N[C@H]1CCCNC1` [AZD7762] + Nc1ncn([C@H]2C[C@H](O)[C@@H](CO)O2)c(=O)n1 [Decitabine] (partner 2 µM) has a relative viability ([1]; first compound 0.01 µM) of 1.07, a relative viability ([1]; first compound 0.03162 µM) of 1.11 and a relative viability ([1]; first compound 0.1 µM) of 0.989. It also gave a relative viability ([1]; first compound 0.3162 µM) of 0.909, a relative viability ([1]; first compound 1 µM) of 0.617 and a relative viability ([2]; first compound 0.01 µM) of 0.313. The relative viability ([2]; first compound 0.03162 µM) was 0.378, the relative viability ([2]; first compound 0.1 µM) was 0.411 and the relative viability ([2]; first compound 0.3162 µM) was 0.475. The relative viability ([2]; first compound 1 µM) was 0.332, the relative viability ([3]; first compound 0.01 µM) was 0.853 and the relative viability ([3]; first compound 0.03162 µM) was 0.901. It also gave a relative viability ([3]; first compound 0.1 µM) of 0.796, a relative viability ([3]; first compound 0.3162 µM) of 0.649 and a relative viability ([3]; first compound 1 µM) of 0.682. For the same compound, the relative viability ([4]; first compound 0.01 µM) was 0.707, the relative viability ([4]; first compound 0.03162 µM) was 0.901 and the relative viability ([4]; first compound 0.1 µM) was 0.824. It also gave a relative viability ([4]; first compound 0.3162 µM) of 0.904, a relative viability ([4]; first compound 1 µM) of 0.622 and a relative viability ([5]; first compound 0.01 µM) of 0.451. The relative viability ([5]; first compound 0.03162 µM) was 0.427, the relative viability ([5]; first compound 0.1 µM) was 0.442 and the relative viability ([5]; first compound 0.3162 µM) was 0.415. For the same compound, the relative viability ([5]; first compound 1 µM) was 0.434, the relative viability ([6]; first compound 0.01 µM) was 0.657 and the relative viability ([6]; first compound 0.03162 µM) was 0.488. For the same compound, the relative viability ([6]; first compound 0.1 µM) was 0.451, the relative viability ([6]; first compound 0.3162 µM) was 0.26 and the relative viability ([6]; first compound 1 µM) was 0.0798. For the same compound, the relative viability ([7]; first compound 0.01 µM) was 0.892, the relative viability ([7]; first compound 0.03162 µM) was 0.869 and the relative viability ([7]; first compound 0.1 µM) was 0.949. It also gave a relative viability ([7]; first compound 0.3162 µM) of 0.848, a relative viability ([7]; first compound 1 µM) of 0.592 and a relative viability ([8]; first compound 0.01 µM) of 0.46. For the same compound, the relative viability ([8]; first compound 0.03162 µM) was 0.494, the relative viability ([8]; first compound 0.1 µM) was 0.442 and the relative viability ([8]; first compound 0.3162 µM) was 0.497. For the same compound, the relative viability ([8]; first compound 1 µM) was 0.44, the relative viability ([9]; first compound 0.01 µM) was 0.806 and the relative viability ([9]; first compound 0.03162 µM) was 0.777. For the same compound, the relative viability ([9]; first compound 0.1 µM) was 0.808, the relative viability ([9]; first compound 0.3162 µM) was 0.765 and the relative viability ([9]; first compound 1 µM) was 0.487. For the same compound, the relative viability ([10]; first compound 0.01 µM) was 0.743, the relative viability ([10]; first compound 0.03162 µM) was 0.793 and the relative viability ([10]; first compound 0.1 µM) was 0.962. For the same compound, the relative viability ([10]; first compound 0.3162 µM) was 0.845, the relative viability ([10]; first compound 1 µM) was 0.611 and the relative viability ([11]; first compound 0.01 µM) was 0.76. The relative viability ([11]; first compound 0.03162 µM) was 0.839, the relative viability ([11]; first compound 0.1 µM) was 0.847 and the relative viability ([11]; first compound 0.3162 µM) was 0.922. The relative viability ([11]; first compound 1 µM) was 0.703, the relative viability ([12]; first compound 0.01 µM) was 0.863 and the relative viability ([12]; first compound 0.03162 µM) was 0.911. The relative viability ([12]; first compound 0.1 µM) was 0.941, the relative viability ([12]; first compound 0.3162 µM) was 0.958 and the relative viability ([12]; first compound 1 µM) was 0.635. The relative viability ([13]; first compound 0.01 µM) was 0.866, the relative viability ([13]; first compound 0.03162 µM) was 0.727 and the relative viability ([13]; first compound 0.1 µM) was 0.65. It also gave a relative viability ([13]; first compound 0.3162 µM) of 0.476, a relative viability ([13]; first compound 1 µM) of 0.354 and a relative viability ([14]; first compound 0.01 µM) of 0.465. It also gave a relative viability ([14]; first compound 0.03162 µM) of 0.544, a relative viability ([14]; first compound 0.1 µM) of 0.497 and a relative viability ([14]; first compound 0.3162 µM) of 0.581. It also gave a relative viability ([14]; first compound 1 µM) of 0.436, a relative viability ([15]; first compound 0.01 µM) of 0.567 and a relative viability ([15]; first compound 0.03162 µM) of 0.581. For the same compound, the relative viability ([15]; first compound 0.1 µM) was 0.51, the relative viability ([15]; first compound 0.3162 µM) was 0.517 and the relative viability ([15]; first compound 1 µM) was 0.39. The relative viability ([16]; first compound 0.01 µM) was 0.437, the relative viability ([16]; first compound 0.03162 µM) was 0.551 and the relative viability ([16]; first compound 0.1 µM) was 0.689. It also gave a relative viability ([16]; first compound 0.3162 µM) of 1.28, a relative viability ([16]; first compound 1 µM) of 0.39 and a relative viability ([17]; first compound 0.01 µM) of 0.728. For the same compound, the relative viability ([17]; first compound 0.03162 µM) was 0.591, the relative viability ([17]; first compound 0.1 µM) was 0.598 and the relative viability ([17]; first compound 0.3162 µM) was 0.479. The relative viability ([17]; first compound 1 µM) was 0.305, the relative viability ([18]; first compound 0.01 µM) was 0.823 and the relative viability ([18]; first compound 0.03162 µM) was 0.796. The relative viability ([18]; first compound 0.1 µM) was 0.816, the relative viability ([18]; first compound 0.3162 µM) was 0.761 and the relative viability ([18]; first compound 1 µM) was 0.673. For the same compound, the relative viability ([19]; first compound 0.01 µM) was 0.612, the relative viability ([19]; first compound 0.03162 µM) was 0.887 and the relative viability ([19]; first compound 0.1 µM) was 0.698. It also gave a relative viability ([19]; first compound 0.3162 µM) of 0.692, a relative viability ([19]; first compound 1 µM) of 0.315 and a relative viability ([20]; first compound 0.01 µM) of 0.332. It also gave a relative viability ([20]; first compound 0.03162 µM) of 0.407, a relative viability ([20]; first compound 0.1 µM) of 0.337 and a relative viability ([20]; first compound 0.3162 µM) of 0.309. It also gave a relative viability ([20]; first compound 1 µM) of 0.154, a relative viability ([21]; first compound 0.01 µM) of 0.52 and a relative viability ([21]; first compound 0.03162 µM) of 0.553. It also gave a relative viability ([21]; first compound 0.1 µM) of 0.565, a relative viability ([21]; first compound 0.3162 µM) of 0.555 and a relative viability ([21]; first compound 1 µM) of 0.597.
